Test results reported in US10265345B2 (priority 2008, dated 2019).
Like-named read-outs stand apart in the source and are kept apart here.

Key:
[1] = test system: superoxide dismutase (SOD); format: in vivo, Male Wistar rats; settings: rat brain tissues, 3 mg/kg, 48 hours after permanent MCAO
[2] = test system: lactic acid in brain tissues; test: Level of lactic acid in brain tissues 48 hours after permanent MCAO; format: in vivo, Male Wistar rats; settings: rat brain tissues, 3 mg/kg
[3] = test system: acute cerebral ischemia (MCAO) in rats; design: species or system Male Wistar rats; settings: rat, in vivo, 3 mg/kg
[4] = test system: acute cerebral ischemia (MCAO) in rats; format: in vivo, Male Wistar rats; settings: 3 mg/kg, 5 doses from 2 h after surgery, 48 h

Question: Which results are given for CC1=NN(c2ccccc2)C(=O)C1 [Edaravone, edaravone]?
Answer: SOD Activity [1]: 234.66 ± 15.85 U/mg pro; SOD Activity ([1]; listed as edaravone): significantly increased; Level of Lactic acid ([2]; model 0.98 ± 0.09, sham 0.37 ± 0.01): 0.64 ± 0.08 mmol/g protein; Level of Lactic acid ([2]; model 0.98 ± 0.09, sham 0.37 ± 0.01, listed as edaravone): 0.64±0.08 mmol/g protein; Volume (area) of cerebral infarction [3]: decreased significantly; Scores of MCAO neurological symptoms ([4]; model group 5.3 ± 2.8): 4.3 ± 1.6; Scores of MCAO neurological symptoms ([4]; model group 5.3 ± 2.8, listed as edaravone): no significant difference
